From patent EP0805678B1, “SURFACE-MODIFIED NANOPARTICLES AND METHOD OF MAKING AND USING SAME” (THE BOARD OF REGENTS acting for and on behalf of THE …, priority 1995, dated 1996)

Legend:
[1] = test system: ADP-induced platelet aggregation; test: in vitro platelet aggregometry; assay type: cell-based, pig; details: platelet rich plasma at 37° C, effects monitored after 1 minute
Experimental: Using standard in vitro platelet aggregometry techniques, a dose-response curve was first developed with free ciprostene to determined its inhibitory potency against standard ADP-induced platelet aggregation. […] Concentrations of PLGA nanoparticles ranging from 0.3 to 30 µg/ml (actual ciprostene concentration of 0.06 to 6 µg/ml due to 20% drug loading) were added to platelet rich plasma samples heated to 37° C. The platelet inhibitory effects were monitored after 1 minute. The IC50 for the polymer-incorporated ciprostene was 0.59 µg/ml. Non-drug containing PLGA nanoparticles, as controls, had no obvious effects on the aggregation profile of pig platelets to the agonist ADP.

[2] = test system: coronary artery; test: in vivo retention of nanoparticles in porcine coronary artery; design: species or system pigs; details: after local delivery of U86-loaded nanoparticles; about 45 µg nanoparticles per 1 cm LAD
Experimental: In addition to the in vivo studies with rats, the nanoparticles were tested on pigs, weighing between about 30-40 lbs. In each subject pig, the elastic lamina of the coronary artery was ruptured by over inflation of a balloon tip catheter. A nanoparticle suspension (2.5 to 10 mg/ml in normal saline) was infused at the location of the injury by a Wolinksy (28 or 96 hole) or D-3 balloon catheter (Sci-Med, Minneapolis, MN) at 1-3 atmosphere pressure over 1 to 5 minutes. After 2-6 hours, the coronary arteries were harvested and quantitated for drug levels to calculate nanoparticle retention. U86 loaded-PLGA nanoparticles (15% w/w) with 5% DMAB surface modification and a particle size between 100-149 nm were suspended in normal saline at a concentration 15 or 30 mg/ml. The nanoparticles (NP) were administered to pigs which were sacrificed at 30 minutes or after one hour.

Structure (SMILES) | IC50 [1] | net U86 in 1 cm of treated artery [2]
CCCCC[C@H](O)/C=C/[C@H]1[C@H](O)C[C@]2(C)C/C(=C\CCCC(=O)O)C[C@H]12 [free ciprostene, ciprostene] | roughly 0.28 µg/ml | 
O=c1cc(N2CCOCC2)oc2c(OCc3cccnc3)cccc12 [Sample U86, U-86983] |  | about 7 µg
